Test results: publication PMC6112376, “Comprehensive Analyses and Prioritization of Tox21 10K Chemicals Affecting Mitochondrial Function by in-Depth Mechanistic Studies” (Environmental Health Perspectives, 2018)
Like-named read-outs stand apart in the source and are kept apart here.

Tests used:
rat primary hepatocytes [1] = system: rat primary hepatocytes
rat primary hepatocytes [2] = experiment: MMP assay in rat primary hepatocytes; settings: for IC50: read-out: MMP assays IC50 (µM) Rat Hepatocytes
HepG2 cells [3] = experiment: cells; settings: Homo sapiens; for IC50: HepG2, read-out: MMP assays IC50 (µM) HepG2; for Emax: HepG2, read-out: MMP assays efficacy (%) HepG2
HepG2 cells [4] = settings: cited from earlier work
HepG2 cells [5] = settings: for IC50: read-out: MMP assays IC50 (µM) HepG2
[6] = read-out: MMP assays IC50 (µM) qHTS-HepG2
[7] = read-out: MMP assays IC50 (µM), qHTS-HepG2
[8] = rat hepatocytes, mean ± SD of three experiments
[9] = HepG2 cells, single number from one experiment

Molecule	MMP assays efficacy (%) qHTS-HepG2 (HepG2 cells [4])	IC50 (HepG2 cells [4]; [6])	IC50 (HepG2 cells [4]; [7])	MMP assays efficacy (%) Rat Hepatocytes (rat primary hepatocytes [2]; [8])	IC50 (rat primary hepatocytes [2]; [8])	MMP assays efficacy (%) HepG2 (HepG2 cells [5]; [9])	IC50 (HepG2 cells [5]; [9])	further results
CC(=O)c1cc2c(cc1C)C(C)(C)C(C)CC2(C)C (centres unmarked)	-74±22%	30.6 ± 18.9 µM	–	–	–	–	–	MMP assays efficacy (%) Rat Hepatocytes (rat primary hepatocytes [1]): inactive; MMP assays IC50 (µM) Rat Hepatocytes (rat primary hepatocytes [2]): inactive; IC50 (HepG2 cells [3]): 28.2 µM; Emax (HepG2 cells [3]): 73%
CCC(C)(C)c1cc(O)c(C(C)(C)CC)cc1O	-121±19%	6.86 ± 3.17 µM	–	–	–	–	–	MMP assays efficacy (%) Rat Hepatocytes (rat primary hepatocytes [1]): -87±19%; IC50 (rat primary hepatocytes [2]; Rattus norvegicus, Hepatocyte): 34.5 ± 5.88 µM; IC50 (HepG2 cells [3]): 3.55 µM; Emax (HepG2 cells [3]): 101%
C[C@@]1(c2ccc(Oc3ccccc3)cc2)OC(=O)N(Nc2ccccc2)C1=O (racemic) [Famoxadone]	-104±6%	4.19 ± 1.07 µM	–	–	–	–	–	MMP assays efficacy (%) Rat Hepatocytes (rat primary hepatocytes [1]): -158±101%; IC50 (rat primary hepatocytes [2]; Rattus norvegicus, Hepatocyte): 8.38 ± 6.71 µM; IC50 (HepG2 cells [3]): 4.47 µM; Emax (HepG2 cells [3]): 107%
c1ccc(-c2cccc(-c3ccccc3)c2)cc1 [1,1':3',1''-Terphenyl]	-80±13%	47.9 ± 14.3 µM	–	–	–	–	–	MMP assays efficacy (%) Rat Hepatocytes (rat primary hepatocytes [1]): -53±28%; IC50 (rat primary hepatocytes [2]; Rattus norvegicus, Hepatocyte): 29.6 ± 27.7 µM; IC50 (HepG2 cells [3]): 50.1 µM; Emax (HepG2 cells [3]): 90%
CC(=O)C(Cl)(Cl)Cl [1,1,1-Trichloropropanone]	-93±13%	1.22 ± 0.56 µM	–	–	–	–	–	MMP assays efficacy (%) Rat Hepatocytes (rat primary hepatocytes [1]): -42±17%; IC50 (rat primary hepatocytes [2]; Rattus norvegicus, Hepatocyte): 23.7 ± 29.6 µM; IC50 (HepG2 cells [3]): 3.16 µM; Emax (HepG2 cells [3]): 123%
BrC1CCC(Br)C(Br)CCC(Br)C(Br)CCC1Br (centres unmarked) [1,2,5,6,9,10-Hexabromocyclododecane]	-96±6%	6.93 ± 1.95 µM	–	–	–	–	–	MMP assays efficacy (%) Rat Hepatocytes (rat primary hepatocytes [1]): -89±40%; IC50 (rat primary hepatocytes [2]; Rattus norvegicus, Hepatocyte): 32 ± 16.5 µM; IC50 (HepG2 cells [3]): 6.31 µM; Emax (HepG2 cells [3]): 105%
O=c1[nH]sc2ccccc12 [1,2-Benzisothiazolin-3-one]	-81±19%	38.6 ± 13.7 µM	–	–	–	–	–	MMP assays efficacy (%) Rat Hepatocytes (rat primary hepatocytes [1]): inactive; MMP assays IC50 (µM) Rat Hepatocytes (rat primary hepatocytes [2]): inactive; IC50 (HepG2 cells [3]): 17.8 µM; Emax (HepG2 cells [3]): 118%
COC(=O)Nc1nc2ccc(C(=O)c3ccccc3)cc2[nH]1 [Mebendazole]	-70±10%	–	2.45 ± 0.34 µM	–	–	–	–	MMP assays efficacy (%) Rat Hepatocytes (rat primary hepatocytes [1]): inactive; IC50 (HepG2 cells [3]): 2.34 µM; Emax (HepG2 cells [3]): 89%
CCN(C(=O)N(CC)c1ccccc1)c1ccccc1 [N,Nφ-Diethylcarbanilide]	-69±23%	–	21.7 ± 38.2 µM	-58±11%	13.1 ± 16.4 µM	inactive	–	MMP assays IC50 (µM) HepG2 (HepG2 cells [5]; [9]): inactive
CCCCCCCC[N+](C)(CCCCCCCC)CCCCCCCC.[Cl-] [N-Methyl-N,N-dioctyloctan-1-aminium chloride]	-80±6%	–	2.73 ± 0.32 µM	-100±17%	19.6 ± 4.89 µM	-89%	10 µM	–
CCCCCCCCCOC(=O)c1ccc(O)cc1 [Nonylparaben]	-101±6%	–	4.43 ± 0.3 µM	inactive	–	-110%	7.94 µM	MMP assays IC50 (µM) Rat Hepatocytes (rat primary hepatocytes [2]; [8]): inactive
C#C[C@]1(OC(=O)CCCCCC)CC[C@H]2[C@@H]3CCC4=CC(=O)CC[C@@H]4[C@H]3CC[C@@]21C [Noristerat]	-87±18%	–	9.81 ± 1.78 µM	inactive	–	-117%	21.8 µM	MMP assays IC50 (µM) Rat Hepatocytes (rat primary hepatocytes [2]; [8]): inactive
C[C@H](/C=C/[C@H](C)C(C)(C)O)[C@H]1CC[C@H]2/C(=C/C=C3C[C@@H](O)C[C@H](O)C3)CCC[C@]12C [Paricalcitol]	-69±16%	–	8.91 ± 1.56 µM	inactive	–	inactive	–	MMP assays IC50 (µM) Rat Hepatocytes (rat primary hepatocytes [2]; [8]): inactive; MMP assays IC50 (µM) HepG2 (HepG2 cells [5]; [9]): inactive
Cc1cccc(C(C)(C)C)c1O [Phenol, 2-(1,1-dimethylethyl)-6-methyl-]	inactive	–	–	inactive	–	inactive	–	MMP assays IC50 (µM) Rat Hepatocytes (rat primary hepatocytes [2]; [8]): inactive; MMP assays IC50 (µM) qHTS-HepG2 (HepG2 cells [4]): inactive; MMP assays IC50 (µM) HepG2 (HepG2 cells [5]; [9]): inactive
O=C([O-])c1cc(=O)c2c3nc4ccccc4oc-3cc(=O)c2[nH]1.[Na+] [Pirenoxine sodium]	-54±10%	–	21.1 ± 17.8 µM	inactive	–	inactive	–	MMP assays IC50 (µM) Rat Hepatocytes (rat primary hepatocytes [2]; [8]): inactive; MMP assays IC50 (µM) HepG2 (HepG2 cells [5]; [9]): inactive
Nc1ccc2cc3ccc(N)cc3nc2c1.Nc1ccc2cc3ccc(N)cc3nc2c1.O=S(=O)(O)O [Proflavin hemisulfate]	-115±21%	–	3.22 ± 0.82 µM	-94±11%	11.6 ± 5.45 µM	-95%	3.46 µM	–
Cl.Nc1ccc2cc3ccc(N)cc3nc2c1 [Proflavin hydrochloride]	-115±14%	–	1.66 ± 0.63 µM	-79±34%	15.9 ± 5.23 µM	-97%	3.55 µM	–

Molecule	MMP assays efficacy (%) qHTS-HepG2 (HepG2 cells [4])	IC50 (HepG2 cells [4]; [6])	IC50 (HepG2 cells [4]; [7])	MMP assays efficacy (%) Rat Hepatocytes (rat primary hepatocytes [2]; [8])	IC50 (rat primary hepatocytes [2]; [8])	MMP assays efficacy (%) HepG2 (HepG2 cells [5]; [9])	IC50 (HepG2 cells [5]; [9])	further results
O.O.O.O.[Na+].[O-]c1ccccc1-c1ccccc1 [Sodium 2-phenylphenate tetrahydrate]	-98±8%	–	18.5 µM	inactive	–	-77%	31.6 µM	MMP assays IC50 (µM) Rat Hepatocytes (rat primary hepatocytes [2]; [8]): inactive
Cl.O=C1CSC2(CCN(CCCN3c4ccccc4Sc4ccc(Cl)cc43)CC2)N1 [Spiclomazine hydrochloride]	-107±11%	–	34.8 ± 2.36 µM	inactive	–	inactive	–	MMP assays IC50 (µM) Rat Hepatocytes (rat primary hepatocytes [2]; [8]): inactive; MMP assays IC50 (µM) HepG2 (HepG2 cells [5]; [9]): inactive
O=C(CCCN1CCC2(CC1)C(=O)NCN2c1ccccc1)c1ccc(F)cc1 [Spiperone]	-65±12%	–	–	–	–	–	–	MMP assays efficacy (%) Rat Hepatocytes (rat primary hepatocytes [1]): -74±48%; Emax (HepG2 cells [3]): 54%
O=C1OC(OC(=O)c2cccnc2Nc2cccc(C(F)(F)F)c2)c2ccccc21 (centres unmarked) [Talniflumate]	-105±19%	–	27 ± 2.56 µM	-85±2%	–	inactive	–	IC50 (rat primary hepatocytes [2]; Rattus norvegicus, Hepatocyte): 16 ± 6.68 µM; MMP assays IC50 (µM) HepG2 (HepG2 cells [5]; [9]): inactive
CC(=O)Nc1ccc(NC(=S)NC(=O)c2ccc(C(C)(C)C)cc2)cc1 [Tenovin-1]	-115±19%	–	3.27 ± 2.74 µM	-41±18%	18.4 ± 1.5 µM	-114%	3.88 µM	–
CCOC(=O)c1ccccc1C(=C1C=C(Br)C(=O)C(Br)=C1)c1cc(Br)c(O)c(Br)c1 [Tetrabromophenolphthalein ethyl ester]	-105±26%	–	23.8 ± 6.89 µM	-101±25%	13.8 ± 0.94 µM	-129%	26.6 µM	–
CCCOc1ccc2nc(NC(=O)OC)sc2c1 [Tioxidazole]	-70±6%	–	7.5 ± 1.75 µM	-65±43%	13 ± 1.06 µM	-62%	15.5 µM	–
Cc1cc2nc3ccc(N(C)C)cc3[s+]c2cc1N.[Cl-] [Toluidine blue]	-50±26%	–	3.48 ± 1.6 µM	inactive	–	-44%	4.89 µM	MMP assays IC50 (µM) Rat Hepatocytes (rat primary hepatocytes [2]; [8]): inactive
CCCCCCCCCCCCCC[P+](CCCCCC)(CCCCCC)CCCCCC.[Cl-] [Trihexyltetradecylphosphonium chloride]	-113±11%	–	0.77 ± 0.35 µM	-91±44%	30.3 ± 8.97 µM	-101%	0.89 µM	–
CC(C)(C)OC(=O)c1ccc(O)cc1 [tert-Butyl 4-hydroxybenzoate]	-99±24%	–	25.3 ± 7.32 µM	-80±10%	50.8 ± 9.48 µM	-105%	35.5 µM	–
CCCCCCCC[N+](CCCCCCCC)(CCCCCCCC)CCCCCCCC.[Br-] [tetra-N-Octylammonium bromide]	-88±6%	–	–	inactive	–	-92%	0.13 µM	MMP assays IC50 (µM) Rat Hepatocytes (rat primary hepatocytes [2]; [8]): inactive
Acriflavine hydrochloride	-131±19%	0.94 ± 0.44 µM	–	–	–	–	–	IC50 (rat primary hepatocytes [2]): 3.55 ± 1.14 µM; MMP assays efficacy (%) HepG2 (HepG2 cells [5]): -107%; IC50 (HepG2 cells [5]): 0.44 µM
Bis(tributyltin)oxide	-112±4%	0.09 ± 0.02 µM	–	–	–	–	–	MMP assays IC50 (µM) Rat Hepatocytes (rat primary hepatocytes [2]): inactive; MMP assays efficacy (%) HepG2 (HepG2 cells [5]): -98%; IC50 (HepG2 cells [5]): 0.31 µM
Diniconazole	–	12.2 ± 3.53 µM	–	–	–	–	–	IC50 (rat primary hepatocytes [2]): 36 ± 28.6 µM; IC50 (HepG2 cells [5]): 8.91 µM
Dodecylphenol	–	3.1 ± 1.22 µM	–	-59±7%	41.1 ± 13.2 µM	-100%	3.16 µM	–
TYROTHRICIN	–	–	–	–	–	–	–	MMP assays efficacy (%) Rat Hepatocytes (rat primary hepatocytes [1]): -89±25%
Verteporfin	-65±5%	–	3.27 ± 1.85 µM	-43±14%	21.8 ± 7.79 µM	-127%	8.69 µM	–
